Test results reported in US20040127403A1, “Methods for treating and preventing Gram-positive bacteremias” (priority 2002, published 2004).
Where “and” joins values, the source holds several entries; their conditions need not be identical. Equal entries are not always repeated.

Columns and labels:
[1] = system: VanA strain of E. faecium (VRE); assay: Suppression of VRE in a mouse colonization model; type: in vivo, Mice
Procedure: Mice were colonized with a clinical isolate VanA strain of E. faecium (VRE) isolated from a septicemic patient. A single inoculation of 5×10^8 cfu VRE by oral gavage (Day 0) was followed by treatment with vancomycin in the drinking water to maintain colonization. On day 22, each group received the same vancomycin-containing drinking water. One group also received ramoplanin (100 μg/mL) in its drinking water. The dose of ramoplanin per day was estimated to be 15 mg/kg, based on a standard water consumption of 150 mL/kg/day. Treatment with ramoplanin was discontinued on Day 29, and vancomycin treatment was discontinued on Day 36. The control group consisted of five mice, while the ramoplanin group consisted of four mice.

VRE [2] = assay: MIC against VRE, NCCLS broth microdilution; type: cell-based; conditions: all VRE in this study cultured in CAMHB
Procedure: The efficacy of ramoplanin was tested against recently isolated VRE that are resistant to linezolid and quinupristin/dalfopristin. The culture media containing ramoplanin was supplemented with 0.02% bovine serum albumin (BSA) to prevent ramoplanin binding to the plastic. MIC values were determined in both cation-adjusted Mueller-Hinton broth (CAMHB) and trypticase soy broth (TSB) by the National Committee for Clinical Laboratory Standards (NCCLS) broth microdilution method. Macromolecular biosynthesis experiments were done by following the incorporation of carbon-14-labeled N-acetylglucosamine, acetic acid, amino acids, uridine, and thymidine into peptidoglycan, fatty acid, protein, RNA and DNA, respectively.

[3] = system: Gram-positive bacteria (staphylococci, streptococci, enterococci) in feces; assay: Multiple dose study: activity on stool microflora, Gram-positive bacteria; type: in vivo, human
Procedure: (§1) Healthy male volunteers were administered 200, 400, or 800 mg ramoplanin twice-a-day, for ten consecutive days. The predetermined dose was reconstituted in 5 mL water per vial, mixed with 50 mL of sweetened, aromatized solution, and immediately administered orally to the subjects.
(§2) The antibacterial activity of ramoplanin on the stool microflora was assessed in a subset of the subjects. Microbial concentrations (i.e., the number of organisms per gram of fecal matter) were determined at the following time points: Day-4 (pre-treatment), Days 4 and 10 (treatment), and Days […] and 24 (follow-up). Tolerability and absorption were also investigated.

[4] = Oral formulation study: ramoplanin in feces, plasma and urine; type: in vivo, human; conditions: 400 mg b.i.d. seven days
Procedure: (§3) To further elucidate the pharmacodynamics and intestinal bioavailability, healthy male volunteers (18-45 years; BMI—19-29 kg/m^2) were administered oral ramoplanin (400 mg b.i.d.) for seven days and fecal Enterococci were monitored. Ramoplanin was administered to six subjects as a granulated powder admixed with Orasweet® syrup vehicle.

VRE [5] = assay: Time-kill studies against VRE; type: cell-based
fecal Enterococci = assay: Oral formulation study: suppression of fecal Enterococci; type: in vivo, human; conditions: 400 mg b.i.d. seven days, granulated powder in Orasweet syrup; day 7/8
Procedure: as §3
The presence of fecal enterococci was confirmed in all subjects prior to study initiation. Fecal samples were cultured on day 7/8. The pharmacodynamic endpoints was the number of subjects with successful suppression of fecal Enterococci on day 7/8 compared to the pre-study culture.

[6] = In vitro interaction of ramoplanin with human intestinal contents
From the text: The in vitro interaction of ramoplanin with human intestinal contents was studied. […] The binding and the subsequent release of ramoplanin from feces would likely result in long-lasting concentrations in the intestinal tract.

[7] = system: Gram-negative bacteria (enteric bacteria and Bacteroides spp.) or yeast; assay: Multiple dose study: activity on stool microflora, Gram-negative bacteria and yeast; type: in vivo, human; conditions: healthy male volunteers, oral 200, 400, 800 mg B.I.D. 10 days
Procedure: as §1, §2

E. faecium 1836 = assay: MIC, NCCLS broth microdilution; type: cell-based; conditions: E. faecium 1836
Procedure, shortened: (§4)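 NCCLS broth microdilution MICs determined in both cation-adjusted Mueller-Hinton broth and trypticase soy broth. Media containing ramoplanin supplemented with 0.02% BSA to prevent binding to plastic.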

S. aureus ATCC19636 MSSA = assay: MIC, NCCLS broth microdilution; type: cell-based
Procedure, shortened: as §4

E. faecium A 6350 Line-R = assay: MIC, NCCLS broth microdilution; type: cell-based; conditions: E. faecium A 6350 Line-R (Table 2)
Procedure, shortened: as §4

[8] = system: S. aureus ATCC700699 MRSA/VISA; assay: MIC, NCCLS broth microdilution; type: cell-based; conditions: S. aureus ATCC700699 MRSA/VISA
Procedure, shortened: as §4

S. epidermidis ATCC35984 = assay: MIC, NCCLS broth microdilution; type: cell-based; conditions: S. epidermidis ATCC35984
S. epidermidis ATCC18972 = assay: MIC, NCCLS broth microdilution; type: cell-based; conditions: S. epidermidis ATCC18972
Clostridium spp. = assay: Multiple dose study: activity on stool microflora, Clostridium; type: in vivo, human
Procedure: as §1, §2

[9] = Day 29, completion of ramoplanin therapy, 25 mg/kg/day vancomycin + 15 mg/kg/day ramoplanin in drinking water

Ramoplanin
% Mice with VRE [1, 9]: 0%
Enterococci in faeces: Total Enterococci [1, 9]: <2.4 log 10 cfu/g faeces
Enterococci in faeces: VRE [1, 9]: <3.1 log 10 cfu/g faeces
VRE concentration per gram of feces ([1]; mice, after one week of ramoplanin treatment, all animals (undetectable level)): < 3.1 log units
VRE concentration per gram of feces ([1]; mice, before ramoplanin treatment): 9.7 log units
fecal density and carriage of VRE ([1]; mice, ramoplanin 100 μg/mL in drinking water): significantly reduced
MIC (VRE [2]): 0.125 to 0.25 µg/mL
concentrations of staphylococci, streptococci, and enterococci in stool ([3]; by Day 10, all subjects): below the level of detection
effect on Gram-positive bacteria in stool ([3]; first measurement on Day 4 of treatment): marked effect
intestinal flora after therapy ([3]; follow-up after the 10-day therapy): re-colonized by normal Gram-positive bacteria
Gram-positive colony counts in feces ([3]; healthy male volunteers, all doses (200, 400, 800 mg B.I.D.), during the 10-day regimen): undetectable levels
fecal ramoplanin concentration [4]: 0.56 to 2.65 mg/g
ramoplanin concentration in plasma or urine ([4]; any subject): No measurable ramoplanin concentration was detected
time-kill activity (VRE [5]): bactericidal activity
growth of fecal enterococci (fecal Enterococci): suppressed in all test subjects
binding to feces [6]: bind reversibly to solid components of feces
microbiological activity in feces [6]: microbiologically active in feces
effect on Gram-negative flora / yeast in stool [7]: not effective
effect on Gram-negative flora / yeast in stool ([7]; listed as ramoplanin): no effect
MIC (E. faecium 1836; CAMHB): 0.5, 0.5 μg/ml
MIC (E. faecium 1836; TSB): 0.5, 0.5 μg/ml
MIC (E. faecium 1836; Table 6, 1st): 0.25 µg/mL
MIC (E. faecium 1836; Table 6, 2nd): 0.5 µg/mL
MIC (S. aureus ATCC19636 MSSA; CAMHB): 0.5, 0.5 μg/ml
MIC (S. aureus ATCC19636 MSSA; TSB): 0.25, 0.25 μg/ml
MIC (S. aureus ATCC19636 MSSA; Table 6, 1st): 1 µg/mL
MIC (S. aureus ATCC19636 MSSA; Table 6, 2nd): 1 µg/mL
MIC (E. faecium A 6350 Line-R; CAMHB): 0.25, 0.25 μg/ml
MIC (E. faecium A 6350 Line-R; TSB): 0.25, 0.25 μg/ml
MIC ([8]; CAMHB): 0.5 µg/mL and 0.25 µg/mL
MIC ([8]; TSB): 0.25, 0.25 μg/ml
MIC ([8]; Table 6, 1st): 1 µg/mL
MIC ([8]; Table 6, 2nd): 0.5 µg/mL
MIC (S. epidermidis ATCC35984; CAMHB): 0.5, 0.5 μg/ml
MIC (S. epidermidis ATCC35984; TSB): 0.5, 0.5 μg/ml
MIC (S. epidermidis ATCC35984; Table 6, 1st): 1 µg/mL
MIC (S. epidermidis ATCC35984; Table 6, 2nd): 0.25 µg/mL
MIC (S. epidermidis ATCC18972; CAMHB): 0.5, 0.5 μg/ml
MIC (S. epidermidis ATCC18972; TSB): 1, 1 μg/ml
MIC (S. epidermidis ATCC18972; Table 6, 1st): 1 µg/mL
MIC (S. epidermidis ATCC18972; Table 6, 2nd): 0.25 µg/mL
subjects with Clostridium spp. concentration reduced below detectable levels (Clostridium spp.; multiple dose study, stool microflora subset): 10 of 12
clostridial load (Clostridium spp.; two subjects carrying ramoplanin- and vancomycin-resistant Clostridium spp. (C. rectum and C. beijerinckii) before treatment): no variation
